A short description of the data set: Stability of the crystalline therapeutic compound (heat, light, oxidation). Type of data set: physicochemical. An excerpt: An example of a poorly water soluble therapeutic compound appropriate for the present invention is midostaurin which is a protein Kinase C inhibitor.

The structures appear in SMILES notation.

Take `CO[C@@H]1[C@H](N(C)C(=O)c2ccccc2)C[C@H]2O[C@]1(C)n1c3ccccc3c3c4c(c5c6ccccc6n2c5c31)C(=O)NC4` [midostaurin]: the “stability to light and oxidation” value is “light-sensitive and oxidizes”. Further, the thermal stability entry (at melting point of about 260° C.) is listed as “decomposes upon melting”.

Values taken from patent US8641948B2, “Method of making solid dispersions of highly crystalline therapeutic compounds” (Novartis AG, priority 2006, dated 2014).
